# From the supplement of paper PMC4932681
# Assays:
# [1] = test system: T-47D Tam1; experiment: drug sensitivity score (DSS) (DSS (dimensionless)); higher = more sensitive; extreme values may be limits of the assay; conditions: 4-OH-tamoxifen in medium 1 µM; 72 h
# Experimental: (§1)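 FIMM FO2B library drugs were tested at 5 concentrations (10,000-fold range) for 72 h, with CellTiter-Glo viability normalised to DMSO and benzethonium chloride controls. The Drug Sensitivity Score (DSS) is computed from the fitted logistic dose-response curve (area-based; 0 = inactive). Resistant lines and the 'in 1µM tamoxifen' arms were tested in 1 µM 4-OH-tamoxifen.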
# [2] = test system: BT-474 Tam2; experiment: as above; conditions: 4-OH-tamoxifen in medium 1 µM; 72 h
# Experimental: as §1
# [3] = test system: ZR-75-1 Tam2; experiment: as above; conditions: 4-OH-tamoxifen in medium 1 µM; 72 h
# Experimental: as §1
# [4] = test system: MCF-7; experiment: as above; conditions: 72 h
# Experimental: as §1
# [5] = test system: MCF-7 Tam1; experiment: as above; conditions: 4-OH-tamoxifen in medium 1 µM; 72 h
# Experimental: as §1
# [6] = test system: BT-474 Tam1; experiment: as above; conditions: 4-OH-tamoxifen in medium 1 µM; 72 h
# Experimental: as §1
# [7] = test system: T-47D; experiment: as above; conditions: 72 h
# Experimental: as §1
# [8] = test system: BT-474; experiment: as above; conditions: 72 h
# Experimental: as §1
# [9] = test system: T-47D Tam2; experiment: as above; conditions: 4-OH-tamoxifen in medium 1 µM; 72 h
# Experimental: as §1
# [10] = test system: ZR-75-1 Tam1; experiment: as above; conditions: 4-OH-tamoxifen in medium 1 µM; 72 h
# Experimental: as §1
# [11] = test system: ZR-75-1; experiment: as above; conditions: 72 h
# Experimental: as §1
# [12] = test system: BT-474 Tam2; experiment: relative IC50 (midpoint of fitted logistic curve, plateau may be below 50% inhibition; CellTiter-Glo viability); higher = less potent; conditions: 4-OH-tamoxifen in medium 1 µM; 72 h
# Experimental: (§2)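 FIMM FO2B library drugs were plated at 5 concentrations spanning a 10,000-fold range in 384-well plates. Cells were incubated for 72 h at 37 °C and viability was read by CellTiter-Glo, normalised to DMSO (0% inhibition) and 100 µM benzethonium chloride (100% inhibition). IC50 values come from logistic dose-response fits (Breeze pipeline). Tamoxifen-resistant lines and the 'in 1µM tamoxifen' parental arms were tested in medium with 1 µM 4-OH-tamoxifen.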
# [13] = test system: ZR-75-1 Tam2; experiment: as above; conditions: 4-OH-tamoxifen in medium 1 µM; 72 h
# Experimental: as §2
# [14] = test system: MCF-7; experiment: as above; conditions: 72 h
# Experimental: as §2
# [15] = test system: MCF-7 Tam1; experiment: as above; conditions: 4-OH-tamoxifen in medium 1 µM; 72 h
# Experimental: as §2
# [16] = test system: BT-474 Tam1; experiment: as above; conditions: 4-OH-tamoxifen in medium 1 µM; 72 h
# Experimental: as §2
# [17] = test system: T-47D; experiment: as above; conditions: 72 h
# Experimental: as §2
# [18] = test system: BT-474; experiment: as above; conditions: 72 h
# Experimental: as §2
# [19] = test system: ZR-75-1 Tam1; experiment: as above; conditions: 4-OH-tamoxifen in medium 1 µM; 72 h
# Experimental: as §2
# [20] = test system: ZR-75-1; experiment: as above; conditions: 72 h
# Experimental: as §2
relative IC50 [12] [nM],relative IC50 ([14]; 4-OH-tamoxifen in medium 0 µM) [nM],relative IC50 [15] [nM],relative IC50 [16] [nM],relative IC50 ([17]; 4-OH-tamoxifen in medium 0 µM) [nM],relative IC50 ([17]; 4-OH-tamoxifen in medium 1 µM) [nM],relative IC50 ([18]; 4-OH-tamoxifen in medium 0 µM) [nM],relative IC50 ([18]; 4-OH-tamoxifen in medium 1 µM) [nM],relative IC50 ([14]; 4-OH-tamoxifen in medium 1 µM) [nM],SMILES,drug sensitivity score [1],drug sensitivity score [2],drug sensitivity score [3],drug sensitivity score ([4]; 4-OH-tamoxifen in medium 0 µM),drug sensitivity score ([4]; 4-OH-tamoxifen in medium 1 µM),drug sensitivity score [5],drug sensitivity score [6],drug sensitivity score ([7]; 4-OH-tamoxifen in medium 0 µM),drug sensitivity score ([7]; 4-OH-tamoxifen in medium 1 µM),drug sensitivity score ([8]; 4-OH-tamoxifen in medium 0 µM),drug sensitivity score ([8]; 4-OH-tamoxifen in medium 1 µM),drug sensitivity score [9],drug sensitivity score [10],drug sensitivity score ([11]; 4-OH-tamoxifen in medium 0 µM),drug sensitivity score ([11]; 4-OH-tamoxifen in medium 1 µM),relative IC50 [13] [nM],relative IC50 [19] [nM],relative IC50 ([20]; 4-OH-tamoxifen in medium 0 µM) [nM],relative IC50 ([20]; 4-OH-tamoxifen in medium 1 µM) [nM]
,,> 1000,,> 1000,> 1000,> 1000,,,Cn1c(=O)c(F)c(Nc2ccc(I)cc2F)c2c(=O)n(C[C@@H](O)CO)cnc21 [TAK-733],3.14,2.4,0,1.63,5.38,0,0,0,0,0,2.56,0.474,0,0,0,> 1000,> 1000,> 1000,> 1000
4070,,> 10000,,> 10000,,> 10000,,,Cc1cc(C(C)Nc2ccccc2)c2nc(N3CCOCC3)cc(=O)n2c1 (stereo not given) [TGX-221],0.102,1.6,14.3,1.97,2.11,0,1.23,0,0.16,0,0.562,0.389,9.5,13.2,11,104,193,74.3,74.8

# The remaining lines, values behind:
SMILES,relative IC50 [12] [nM],relative IC50 ([14]; 4-OH-tamoxifen in medium 0 µM) [nM],relative IC50 [15] [nM],relative IC50 [16] [nM],relative IC50 ([17]; 4-OH-tamoxifen in medium 0 µM) [nM],relative IC50 ([17]; 4-OH-tamoxifen in medium 1 µM) [nM],relative IC50 ([18]; 4-OH-tamoxifen in medium 0 µM) [nM],relative IC50 ([18]; 4-OH-tamoxifen in medium 1 µM) [nM],relative IC50 ([14]; 4-OH-tamoxifen in medium 1 µM) [nM],drug sensitivity score [1],drug sensitivity score [2],drug sensitivity score [3],drug sensitivity score ([4]; 4-OH-tamoxifen in medium 0 µM),drug sensitivity score ([4]; 4-OH-tamoxifen in medium 1 µM),drug sensitivity score [5],drug sensitivity score [6],drug sensitivity score ([7]; 4-OH-tamoxifen in medium 0 µM),drug sensitivity score ([7]; 4-OH-tamoxifen in medium 1 µM),drug sensitivity score ([8]; 4-OH-tamoxifen in medium 0 µM),drug sensitivity score ([8]; 4-OH-tamoxifen in medium 1 µM),drug sensitivity score [9],drug sensitivity score [10],drug sensitivity score ([11]; 4-OH-tamoxifen in medium 0 µM),drug sensitivity score ([11]; 4-OH-tamoxifen in medium 1 µM),relative IC50 [13] [nM],relative IC50 [19] [nM],relative IC50 ([20]; 4-OH-tamoxifen in medium 0 µM) [nM],relative IC50 ([20]; 4-OH-tamoxifen in medium 1 µM) [nM]
"CN(C)C/C=C/C(=O)Nc1cc2c(Nc3ccc(F)c(Cl)c3)ncnc2cc1O[C@H]1CCOC1 [Afatinib (BIBW2992, Tovok)]",13.1,> 1000,> 1000,12.4,> 1000,> 1000,25.7,15.8,,1.83,21.8,0,0,0.328,0,21.9,0,0,15.3,20.5,0.583,0,0,0,> 1000,> 1000,> 1000,> 1000
Cc1ccc(-n2nc(C(C)(C)C)cc2NC(=O)Nc2ccc(OCCN3CCOCC3)c3ccccc23)cc1 [Doramapimod (BIRB 796)],> 10000,,> 10000,,,> 10000,> 10000,,,0.342,0,0,0.173,0.239,0,1.04,0,0,0,0.211,1.06,0,0,0,> 10000,> 10000,> 10000,> 10000
CC(C)(C)c1cc(NC(=O)Nc2ccc(-c3cn4c(n3)sc3cc(OCCN5CCOCC5)ccc34)cc2)no1 [Quizartinib (AC220)],> 1000,> 1000,> 1000,> 1000,,> 1000,> 1000,> 1000,> 1000,0,0,0,0,0,0,0,0,0,0,0,0.279,0,0,0,> 1000,> 1000,> 1000,> 1000
CC1=C(/C=C/C(C)=C/C=C/C(C)=C/C(=O)O)C(C)(C)CCC1 [Tretinoin],> 10000,> 10000,> 10000,> 10000,> 10000,> 10000,> 10000,> 10000,,0.561,0,0,0,0.52,0,0,0,0,0,0,0.122,0,0,0,> 10000,> 10000,> 10000,> 10000
CC(C)Cn1cnc2c(N)nc3ccccc3c21 [Imiquimod],,> 10000,> 10000,> 10000,,,> 10000,,,1.59,0,0,0,0.399,0,0,0.182,0,0,0.268,0.195,0,0,0,> 10000,> 10000,> 10000,> 10000
CS(=O)(=O)CCNCc1ccc(-c2ccc3ncnc(Nc4ccc(OCc5cccc(F)c5)c(Cl)c4)c3c2)o1 [Lapatinib],65.9,> 1000,> 1000,89.4,> 1000,> 1000,113,82.4,,4,12.8,0,0,1.43,0,11.6,0,0,8.29,12.2,0.567,0,0,0,> 1000,> 1000,> 1000,> 1000
